Laboratory results as given in patent US8809347B2, “Bicyclic aryl and bicyclic heteroaryl substituted triazoles useful as AXL inhibitors” (Rigel Pharmaceuticals, Inc., priority 2006, dated 2014).

Biological target: T1, Axl (Homo sapiens, UniProt P30530)
T1 construct: Cells: Hela cells; endogenous in cells; host or cells: HeLa cells
T1 sequence (P30530 26-894): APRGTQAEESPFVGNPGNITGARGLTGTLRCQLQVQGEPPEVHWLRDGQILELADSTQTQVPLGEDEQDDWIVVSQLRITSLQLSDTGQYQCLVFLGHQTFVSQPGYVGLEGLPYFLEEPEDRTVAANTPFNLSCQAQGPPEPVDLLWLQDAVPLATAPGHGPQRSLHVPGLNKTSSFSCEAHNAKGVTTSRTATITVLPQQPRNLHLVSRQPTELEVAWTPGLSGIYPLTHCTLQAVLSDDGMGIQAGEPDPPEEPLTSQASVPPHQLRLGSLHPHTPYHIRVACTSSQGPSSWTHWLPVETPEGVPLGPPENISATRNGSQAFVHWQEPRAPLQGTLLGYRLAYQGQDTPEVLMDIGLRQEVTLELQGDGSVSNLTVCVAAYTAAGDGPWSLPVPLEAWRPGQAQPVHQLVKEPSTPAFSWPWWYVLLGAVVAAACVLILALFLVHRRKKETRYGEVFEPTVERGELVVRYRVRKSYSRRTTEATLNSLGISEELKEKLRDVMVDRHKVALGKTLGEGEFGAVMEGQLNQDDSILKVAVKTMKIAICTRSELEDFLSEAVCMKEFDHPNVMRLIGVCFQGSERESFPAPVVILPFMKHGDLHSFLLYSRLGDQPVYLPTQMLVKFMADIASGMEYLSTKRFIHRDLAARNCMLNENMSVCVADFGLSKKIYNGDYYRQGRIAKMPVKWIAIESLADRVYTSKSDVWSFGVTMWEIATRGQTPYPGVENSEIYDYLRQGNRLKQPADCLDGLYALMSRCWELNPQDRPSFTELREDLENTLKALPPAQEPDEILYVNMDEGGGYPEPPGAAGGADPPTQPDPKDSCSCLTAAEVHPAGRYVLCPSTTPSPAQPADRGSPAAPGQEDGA
Test: Phospho-Akt in-cell Western assay (inhibition of Axl activity)
Format: cell-based
Conditions: Hela cells; 1 hr pre-treatment; stimulation by Axl-antibody cross-linking; phospho-Akt chemiluminescence normalized to relative cell number
Procedure: The compounds of the invention were tested in the following assay for their ability to inhibit Axl activity.
Phospho-Akt in-Cell Western Assay
• Cell culture plate: 96 well assay plate (Corning 3610), white, clear bottom, tissue-culture treated. • Cells: Hela cells. • Starvation medium: For Axl stimulation: 0.5% FCS (fetal calf serum) in DMEM, plus Axl/Fc (extracellular domain of AXL fused to immunoglobulin Fc region) (R&D, 154-AL) 500 ng/mL. • For EGF (epidermal growth factor) stimulation: 0.5% FCS in DMEM (Dulbecco's modified Eagles medium). • Poly-L-Lysine 0.01% solution (the working solution): […], dilute In PBS (phosphate buffered saline). • Axl antibody cross-linking: • 1st: Mouse anti-Axl (R&D, MAB154). • 2nd: Biotin-SP-conjugated AffiniPure goat anti-mouse IgG (H+ L) (Jackson ImmunoResearch #115-065-003). • Fixing buffer: 4% formaldehyde in PBS. • Wash buffer: 0.1% TritonX-100 in PBS. • Quenching buffer: 3% H2O2, 0.1% Azide in wash buffer, Azide and hydrogen peroxide (H2O2) are added fresh. • Blocking buffer: 5% BSA in TBST (tris buffered saline plus 0.1% Tween 20). • Primary antibody: Rabbit anti-human Phospho-Akt antibody (Cell Signaling 9271): 1×250 diluted in blocking buffer. • Secondary antibody: HRP (horse radish peroxidase)-conjugated Goat anti-Rabbit secondary, stock solution: Jackson ImmunoResearch (Goat anti-Rabbit HRP, #111-035-144) 1:1 diluted in glycerol, store at −20° C. The working solution: 1×2000 dilution of stock in blocking buffer. • Chemiluminescent working solution (Pierce, 37030): SuperSignal ELISA (enzyme linked immunosorbant assay) Pico Chemiluminescent substrate. • Crystal Violet solution: Stock: 2.5% Crystal violet in methanol, filtered and kept at ambient temperature. The working solution: dilute the stock 1:20 with PBS immediately before use. • 10% SDS: working solution: 5% SDS (sodium dodecylsulfate), diluted in PBS Methods: Day 1:
A 96 well TC (tissue culture treated) plate was coated with 10 μg/mL poly-L-Lysine at 37° C. for 30 min, washed twice with PBS, and air-dried for 5 minutes before cells were added. Hela cells were seeded at 10,000 cells/well and the cells were starved in 100 μL starvation medium containing Axl/Fc for 24 hrs.
The cells were pre-treated with test compounds by adding 100 μL of 2× test compound to the starvation medium on the cells. The cells were incubated at 37° C. for 1 hr before stimulation.
The cells were stimulated by Axl-antibody cross-linking as follows: A 5× 1st/2nd Axl antibody mixture was made (37.5 μg/mL 1st/100 μg/mL 2nd) in starvation medium and nutated at 4° C. with thorough mixing for 1-2 hours for clustering. The resulting mix was warmed to 37° C. 50 μL of 5× Axl 1st/2nd of antibody cluster was added to the cells and the cells were incubated at 37° C. for 5 min.
After 5 minutes stimulation, the plate was flicked to remove medium and the plate was tapped onto paper towels. Formaldehyde (4.0% in PBS, 100 μL) was added to fix the cells and the cells were incubated at ambient temperature for 20 min without shaking.
The cells were washed with a plate washer buffer to remove the formaldehyde solution. The plate was flicked to removed excess wash buffer and tapped onto paper towels. Quenching buffer (100 μL) was added to each well and the cells were incubated at ambient temperature for 20 minutes without shaking.
The cells were washed with a plate washer buffer to remove the quenching buffer. Blocking buffer (100 μL) was added and the cells were incubated at ambient temperature for at least an hour with gentle shaking.
The cells were washed with a plate washer buffer and diluted primary antibody (50 μL) was added to each well (blocking buffer was added to the negative control wells instead). The plates were incubated overnight at 4° C. with gentle shaking.
The wash buffer was removed, diluted secondary antibody (100 μL) was added, and the cells were incubated at ambient temperature for 1 hour with gentle shaking. […]

For `Cc1csc2c(-n3nc(Nc4ccc5c(c4)CCCN(C4CC6CCC4C6)CC5)nc3N)nc(Cl)nc12` (stereo not drawn) [Compound 38, N^3-(3-(bicyclo[2.2.1]heptan-2-yl)-1,2,3,4,5,6-hexahydrobenzo[d]azocin-8-yl)-1-(2-chloro-7-methylthieno[3,2-d]pyrimidin-4-yl)-1H-1,2,4-triazole-3,5-diamine], the IC50 was less than 1 µM.

`COc1cc2ncnc(-n3nc(Nc4ccc5c(c4)CCCN(C4CC6CCC4C6)CC5)nc3N)c2cc1OC` (stereo not drawn) [Compound 39, N^3-(3-(bicyclo[2.2.1]heptan-2-yl)-1,2,3,4,5,6-hexahydrobenzo[d]azocin-8-yl)-1-(6,7-dimethoxyquinazolin-4-yl)-1H-1,2,4-triazole-3,5-diamine] was tested, and the IC50 was less than 1 µM.

Molecule `Cc1csc2c(-n3nc(Nc4cnc5c(c4)CCC(N4CCCC4)CCC5)nc3N)ncnc12` (stereo not drawn) [Compound 40, 1-(7-methylthieno[3,2-d]pyrimidin-4-yl)-N^3-(7-(pyrrolidin-1-yl)-5,6,7,8,9,10-hexahydrocycloocta[b]pyridin-3-yl)-1H-1,2,4-triazole-3,5-diamine] has an IC50 of less than 1 µM.

Work on `Cc1csc2c(-n3nc(Nc4ccc5c(c4)CCCN(C4CCCC4)CC5)nc3N)ncnc12` [Compound 41, N^3-(3-cyclopentyl-1,2,3,4,5,6-hexahydrobenzo[d]azocin-8-yl)-1-(7-methylthieno[3,2-d]pyrimidin-4-yl)-1H-1,2,4-triazole-3,5-diamine] yielded an IC50 of less than 1 µM.

`Cc1csc2c(-n3nc(Nc4ccc5c(c4)CCCN(C4CC6CCC4C6)CC5)nc3N)ncnc12` (stereo not drawn) [Compound 42, N^3-(3-(bicyclo[2.2.1]heptan-2-yl)-1,2,3,4,5,6-hexahydrobenzo[d]azocin-8-yl)-1-(7-methylthieno[3,2-d]pyrimidin-4-yl)-1H-1,2,4-triazole-3,5-diamine] was tested, and the IC50 was less than 1 µM.

With `Cc1csc2c(-n3nc(Nc4cnc5c(c4)CCC(NC4CCCCC4)CCC5)nc3N)ncnc12` (stereo not drawn) [Compound 43, N^3-(7-(cyclohexylamino)-5,6,7,8,9,10-hexahydrocycloocta[b]pyridin-3-yl)-1-(7-methylthieno[3,2-d]pyrimidin-4-yl)-1H-1,2,4-triazole-3,5-diamine] the IC50 was less than 1 µM.

With `Cc1csc2c(-n3nc(Nc4cnc5c(c4)CCC(N4CCN(C)CC4)CCC5)nc3N)ncnc12` (stereo not drawn) [Compound 44, N^3-(7-(4-methylpiperazin-1-yl)-5,6,7,8,9,10-hexahydrocycloocta[b]pyridin-3-yl)-1-(7-methylthieno[3,2-d]pyrimidin-4-yl)-1H-1,2,4-triazole-3,5-diamine] the IC50 was less than 1 µM.

`Nc1nc(Nc2ccc(N3CCC(N4CCCC4)CC3)c(F)c2)nn1-c1cc(-c2ccccc2)c2c(n1)CCCCCC2` [Compound 45, N^3-(3-fluoro-4-(4-(pyrrolidin-1-yl)piperidin-1-yl)phenyl)-1-(4-phenyl-5,6,7,8,9,10-hexahydrocycloocta[b]-pyridin-2-yl)-1H-1,2,4-triazole-3,5-diamine] was tested, and the IC50 was 1 to 10 µM.

Work on `CN1CCN(c2ccc(Nc3nc(N)n(-c4cc(-c5ccccc5)c5c(n4)CCCCCC5)n3)cc2)CC1` [Compound 46, N^3-(4-(4-methylpiperazin-1-yl)phenyl)-1-(4-phenyl-5,6,7,8,9,10-Hexahydrocycloocta[b]-pyridin-2-yl)-1H-1,2,4-triazole-3,5-diamine] yielded an IC50 of 1 to 10 µM.

`Nc1nc(Nc2ccc(OCCN3CCCC3)cc2)nn1-c1cc(-c2ccccc2)c2c(n1)CCCCCC2` [Compound 47, N^3-(4-(2-(pyrrolidin-1-yl)ethoxy)phenyl)-1-(4-phenyl-5,6,7,8,9,10-hexahydrocycloocta[b]-pyridin-2-yl)-1H-1,2,4-triazole-3,5-diamine] gave an IC50 of 1 to 10 µM.

`Cc1csc2c(-n3nc(Nc4ccc5c(c4)C(=O)NCCCC5)nc3N)nc(Cl)nc12` [Compound 48, N^3-(1-oxo-1,2,3,4,5,6-hexahydrobenzo[c]azocin-9-yl)-1-(2-chloro-7-methylthieno[3,2-d]pyrimidin-4-yl)-1H-1,2,4-triazole-3,5-diamine] was tested, and the IC50 was less than 1 µM.

Molecule `Cc1csc2c(-n3nc(Nc4ccc5c(c4)C(=O)NCCCC5)nc3N)ncnc12` [Compound 49, N^3-(1-oxo-1,2,3,4,5,6-hexahydrobenzo[c]azocin-9-yl)-1-(7-methylthieno[3,2-d]pyrimidin-4-yl)-1H-1,2,4-triazole-3,5-diamine] has an IC50 of 1 to 10 µM.

For `COc1cc2ncnc(-n3nc(Nc4ccc5c(c4)C(=O)NCCCC5)nc3N)c2cc1OC` [Compound 50, N^3-(1-oxo-1,2,3,4,5,6-hexahydrobenzo[c]azocin-9-yl)-1-(6,7-dimethoxyquinazolin-4-yl)-1H-1,2,4-triazole-3,5-diamine], the IC50 was less than 1 µM.

`Nc1nc(Nc2ccc(N3CCC(N4CCCCCC4)CC3)nc2)nn1-c1ncnc2c1CCCCCC2` [Compound 51, N^3-(6-(4-(azepan-1-yl)piperidin-1-yl)pyridin-3-yl)-1-(5,6,7,8,9,10-hexahydrocycloocta[d]pyrimidin-4-yl)-1H-1,2,4-triazole-3,5-diamine] was tested, and the IC50 was less than 1 µM.

Work on `Nc1nc(Nc2ccc(N3CCC(CN4CCCC4)CC3)nc2)nn1-c1ncnc2c1CCCCCC2` [Compound 52, N^3-(6-(4-((pyrrolidin-1-yl)methyl)piperidin-1-yl)pyridin-3-yl)-1-(5,6,7,8,9,10-hexahydrocycloocta[d]pyrimidin-4-yl)-1H-1,2,4-triazole-3,5-diamine] yielded an IC50 of less than 1 µM.
